Experimental data from patent publication US20030139431A1 (priority 2001, published 2003).

Experiments:
hNPFF1 [1] = target: T1, hNPFF1 (Homo sapiens, UniProt Q9GZQ6); assay: Binding affinity at cloned recombinant human NPFF1 receptor
T1 construct: expressed in transfected cells

hNPFF2 [2] = target: T2, hNPFF2 (Homo sapiens, UniProt Q9Y5X5); assay: Binding affinity at cloned recombinant human NPFF2 receptor
T2 construct: expressed in transfected cells

rNPFF1 [3] = target: T3, rNPFF1 (Rattus norvegicus, UniProt Q9EP86); assay: Binding affinity at cloned recombinant rat NPFF1 receptor
T3 construct: expressed in transfected cells

rNPFF2 [4] = target: T4, rNPFF2 (Rattus norvegicus, UniProt Q9EQD2); assay: Binding affinity at cloned recombinant rat NPFF2 receptor
T4 construct: expressed in transfected cells

hNPFF1 [5] = target: T1, hNPFF1; assay: Functional assay (agonist potency, intrinsic activity) at cloned human NPFF1 receptor; format: cell-based; details: for hNPFF1 IA (intrinsic activity): percent of maximum response elicited by neuropeptide FF, human NPFF1; for EC50: recombinant human NPFF1
Method: (§1) Intrinsic activity of a compound is measured as the percent of maximum response.

hNPFF2 [6] = target: T2, hNPFF2; assay: Functional assay (agonist potency, intrinsic activity) at cloned human NPFF2 receptor; format: cell-based; details: for hNPFF2 IA (intrinsic activity): percent of maximum response elicited by neuropeptide FF, human NPFF2; for EC50: recombinant human NPFF2
Method: as §1

rNPFF1 [7] = target: T3, rNPFF1; assay: Functional assay (agonist potency, intrinsic activity) at cloned rat NPFF1 receptor; format: cell-based; details: for rNPFF1 IA (intrinsic activity): percent of maximum response elicited by neuropeptide FF, rat NPFF1; for EC50: recombinant rat NPFF1
Method: as §1

rNPFF2 [8] = target: T4, rNPFF2; assay: Functional assay (agonist potency, intrinsic activity) at cloned rat NPFF2 receptor; format: cell-based; details: for rNPFF2 IA (intrinsic activity): percent of maximum response elicited by neuropeptide FF, rat NPFF2; for EC50: recombinant rat NPFF2
Method: as §1

[9] = rat cloned NPFF receptors, based on IA and Ki

T1 sequence (Q9GZQ6 whole entry): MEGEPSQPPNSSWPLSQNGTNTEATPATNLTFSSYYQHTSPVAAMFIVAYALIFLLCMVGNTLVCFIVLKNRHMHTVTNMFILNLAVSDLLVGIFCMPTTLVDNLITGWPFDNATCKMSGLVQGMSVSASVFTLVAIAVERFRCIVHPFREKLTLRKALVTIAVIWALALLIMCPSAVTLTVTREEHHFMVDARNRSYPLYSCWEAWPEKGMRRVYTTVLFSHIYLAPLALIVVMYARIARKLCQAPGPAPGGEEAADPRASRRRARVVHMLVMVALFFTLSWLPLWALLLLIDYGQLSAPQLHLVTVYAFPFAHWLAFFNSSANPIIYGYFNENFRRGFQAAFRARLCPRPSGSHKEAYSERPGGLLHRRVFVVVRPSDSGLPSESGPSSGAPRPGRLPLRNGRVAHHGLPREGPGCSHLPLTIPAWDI
T2 sequence (Q9Y5X5 103-522): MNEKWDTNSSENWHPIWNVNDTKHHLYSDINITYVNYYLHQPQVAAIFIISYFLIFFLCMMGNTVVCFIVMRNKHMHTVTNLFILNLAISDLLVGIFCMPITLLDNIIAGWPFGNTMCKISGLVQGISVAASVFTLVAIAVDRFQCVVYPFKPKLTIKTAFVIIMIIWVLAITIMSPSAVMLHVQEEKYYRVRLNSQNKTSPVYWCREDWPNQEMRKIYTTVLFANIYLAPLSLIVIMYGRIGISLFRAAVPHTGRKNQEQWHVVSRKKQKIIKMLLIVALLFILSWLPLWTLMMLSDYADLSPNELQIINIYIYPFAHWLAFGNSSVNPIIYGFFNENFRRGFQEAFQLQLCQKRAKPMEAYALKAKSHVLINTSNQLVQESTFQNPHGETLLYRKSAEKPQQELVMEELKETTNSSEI
T3 sequence (Q9EP86 whole entry): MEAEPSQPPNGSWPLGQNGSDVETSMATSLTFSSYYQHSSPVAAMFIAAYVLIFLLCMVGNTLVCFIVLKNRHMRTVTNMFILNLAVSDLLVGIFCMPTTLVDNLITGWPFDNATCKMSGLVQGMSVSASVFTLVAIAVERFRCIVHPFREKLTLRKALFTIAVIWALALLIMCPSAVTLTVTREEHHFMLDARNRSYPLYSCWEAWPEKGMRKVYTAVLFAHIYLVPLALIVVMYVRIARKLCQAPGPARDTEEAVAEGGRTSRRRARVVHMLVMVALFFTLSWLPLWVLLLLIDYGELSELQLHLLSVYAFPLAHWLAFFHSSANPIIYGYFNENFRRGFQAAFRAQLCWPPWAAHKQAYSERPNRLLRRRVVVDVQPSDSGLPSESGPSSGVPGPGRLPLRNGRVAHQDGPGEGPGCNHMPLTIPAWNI
T4 sequence (Q9EQD2 whole entry): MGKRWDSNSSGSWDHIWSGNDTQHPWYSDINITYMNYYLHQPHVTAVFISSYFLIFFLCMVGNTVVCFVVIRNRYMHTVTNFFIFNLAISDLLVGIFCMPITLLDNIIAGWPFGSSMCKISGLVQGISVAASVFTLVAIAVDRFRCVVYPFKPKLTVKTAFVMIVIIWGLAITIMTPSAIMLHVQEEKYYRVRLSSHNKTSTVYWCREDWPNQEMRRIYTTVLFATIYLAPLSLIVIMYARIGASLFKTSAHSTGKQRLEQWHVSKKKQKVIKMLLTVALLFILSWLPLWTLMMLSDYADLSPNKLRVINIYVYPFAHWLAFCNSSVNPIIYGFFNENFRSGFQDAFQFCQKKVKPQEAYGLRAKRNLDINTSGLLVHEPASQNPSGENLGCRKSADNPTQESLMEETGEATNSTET

SMILES | Ki (hNPFF1 [1]) | Ki (hNPFF2 [2]) | Ki (rNPFF1 [3]) | Ki (rNPFF2 [4]) | hNPFF1 IA (intrinsic activity) (hNPFF1 [5]) | EC50 (hNPFF1 [5]) | hNPFF2 IA (intrinsic activity) (hNPFF2 [6]) | EC50 (hNPFF2 [6]) | classification as agonist or antagonist at NPFF1 (rNPFF1 [7]; [9]) | classification as agonist or antagonist at NPFF2 (rNPFF2 [8]; [9]) | rNPFF1 IA (intrinsic activity) (rNPFF1 [7]) | EC50 (rNPFF1 [7]) | rNPFF2 IA (intrinsic activity) (rNPFF2 [8]) | EC50 (rNPFF2 [8])
Cc1ccc2c(C)nc(NC(=N)N)nc2c1 [Compound 3001, N-(4,7-dimethyl-2-quinazolinyl)guanidine] | 46 nM | 1720 nM | 50 nM | 1220 nM | Inactive | > 10000 nM | Inactive | > 10000 nM | antagonists | antagonists | – | – | – | –
Cc1nc(NC(=N)N)nc2ccc3ccccc3c12 [Compound 1007, N-(1-methylbenzo[f]quinazolin-3-yl)guanidine] | 53 nM | 260 nM | 146 nM | 699 nM | – | – | – | – | – | – | Inactive | > 10000 nM | 66% NPFF | 1300 nM
CCCCCc1ccc2nc(NC(=N)N)cc(C)c2c1 [Compound 5002, N-(4-methyl-6-pentyl-2-quinolinyl)guanidine] | 40 nM | 460 nM | 30 nM | 569 nM | Inactive | > 10000 nM | 75% NPFF | 1710 nM | – | – | 41% NPFF | 157 nM | 90% NPFF | 259 nM
CCc1ccc2nc(NC(=N)N)cc(C)c2c1 [Compound 4002, N-(6-ethyl-4-methyl-2-quinolinyl)guanidine] | 50 nM | 232 nM | 11 nM | 308 nM | Inactive | > 10000 nM | 69% NPFF | 314 nM | – | – | Inactive | > 10000 nM | 84% NPFF | 125 nM
Cc1nc(NC(=N)N)nc2cc(-c3ccccc3)ccc12 [Compound 1023, N-(4-methyl-7-phenyl-2-quinazolinyl)guanidine] | 228 nM | 2920 nM | 4 nM | 1020 nM | Inactive | > 10000 nM | 43% NPFF | 4110 nM | – | – | Inactive | > 10000 nM | 35% NPFF | 3160 nM
Cc1cc(C)c2c(C)cc(NC(=N)N)nc2c1 [Compound 4008, N-(4,5,7-trimethyl-2-quinolinyl)guanidine] | 82 nM | 514 nM | 64 nM | 882 nM | – | – | – | – | – | – | Inactive | > 10000 nM | 65% NPFF | 411 nM
COc1ccc2nc(NC(=N)N)cc(C)c2c1 [Compound 4004, N-(6-methoxy-4-methyl-2-quinolinyl)guanidine] | 113 nM | 1210 nM | 153 nM | 2580 nM | – | – | – | – | – | – | Inactive | > 10000 nM | 65% NPFF | 1530 nM
Cc1nc(NC(=N)N)nc2ccccc12 [Compound 1001, N-(4-methyl-2-quinazolinyl)guanidine] | 240 nM | 2040 nM | 202 nM | > 10000 nM | – | – | – | – | – | – | Inactive | > 10000 nM | 16% NPFF | 3080 nM
Cc1cc(NC(=N)N)nc2ccc(-c3ccccc3)cc12 [Compound 4003, N-(4-methyl-6-phenyl-2-quinolinyl)guanidine] | 207 nM | 2120 nM | 176 nM | 1250 nM | – | – | – | – | – | – | Inactive | > 10000 nM | 26% NPFF | 3160 nM
CCc1cc(NC(=N)N)nc2cc(C)ccc12 [Compound 6003, N-(4-ethyl-7-methyl-2-quinolinyl)guanidine] | 28 nM | 113 nM | 21 nM | 203 nM | – | – | – | – | – | – | Inactive | > 10000 nM | Inactive | > 10000 nM
Cc1cc(NC(=N)N)nc2ccccc12 [Compound 6001, N-(4-methyl-2-quinolinyl)guanidine] | 23 nM | 374 nM | 11 nM | 433 nM | Inactive | > 10000 nM | Inactive | > 10000 nM | – | – | Inactive | > 10000 nM | Inactive | > 10000 nM
Cc1cc(NC(=N)N)nc2c(C)cccc12 [Compound 6002, N-(4,8-dimethyl-2-quinolinyl)guanidine] | 157 nM | 952 nM | 91 nM | 883 nM | – | – | – | – | – | – | Inactive | > 10000 nM | Inactive | > 10000 nM
Cc1ccc2nc(NC(=N)N)cc(C)c2c1 [Compound 4001, N-(4,6-dimethyl-2-quinolinyl)guanidine] | 21 nM | 150 nM | 30 nM | 556 nM | – | – | – | – | – | – | Inactive | > 10000 nM | 68% NPFF | 404 nM
Cc1nc(NC(=N)N)nc2cc(OC(F)(F)F)ccc12 [Compound 1036, N-[4-methyl-7-(trifluoromethoxy)-2-quinazolinyl]guanidine] | – | – | 132 nM | 2460 nM | – | – | – | – | – | – | Inactive | > 10000 nM | 78% NPFF | 369 nM
Cc1nc(NC(=N)N)nc2cc(F)c(F)cc12 [Compound 1019, N-(6,7-difluoro-4-methyl-2-quinazolinyl)guanidine] | – | – | 57 nM | 2870 nM | – | – | – | – | – | – | Inactive | > 10000 nM | 31% NPFF | 2540 nM
Cc1nc(NC(=N)N)nc2ccc(OCc3ccccc3)cc12 [Compound 1028, N-[6-(benzyloxy)-4-methyl-2-quinazolinyl]guanidine] | – | – | 386 nM | 817 nM | – | – | – | – | – | – | Inactive | > 10000 nM | 79% NPFF | 758 nM
Cc1nc(NC(=N)N)nc2ccc(C3CCCCC3)cc12 [Compound 1029, N-(6-cyclohexyl-4-methyl-2-quinazolinyl)guanidine] | – | – | 912 nM | 1200 nM | – | – | – | – | – | – | 28% NPFF | > 10000 nM | 31% NPFF | 2050 nM
Cc1cc2nc(NC(=N)N)nc(C)c2cc1O [Compound 1017, N-(6-hydroxy-4,7-dimethyl-2-quinazolinyl)guanidine] | – | – | 234 nM | 5920 nM | – | – | – | – | – | – | Inactive | > 10000 nM | 23% NPFF | > 10000 nM
Cc1cc(NC(=N)N)nc2ccc3ccccc3c12 [Compound 4009, N-(1-methylbenzo[f]quinolin-3-yl)guanidine] | 144 nM | 826 nM | 153 nM | 871 nM | – | – | – | – | – | – | Inactive | > 10000 nM | 70% NPFF | 3160 nM
Cc1nc(NC(=N)N)nc2ccc(Br)cc12 [Compound 1026, N-(6-bromo-4-methyl-2-quinazolinyl)guanidine] | – | – | 802 nM | > 10000 nM | – | – | – | – | – | – | Inactive | > 10000 nM | 19% NPFF | > 10000 nM
CCCCOc1ccc2nc(NC(=N)N)nc(C)c2c1 [Compound 1012, N-(6-butoxy-4-methyl-2-quinazolinyl)guanidine] | – | – | 733 nM | 4850 nM | – | – | – | – | – | – | Inactive | > 10000 nM | 80% NPFF | 1620 nM
COc1ccc2nc(NC(=N)N)nc(C)c2c1 [Compound 1011, N-(6-methoxy-4-methyl-2-quinazolinyl)guanidine] | – | – | 201 nM | > 10000 nM | – | – | – | – | – | – | Inactive | > 10000 nM | Inactive | > 10000 nM
Cc1ccc2nc(NC(=N)N)nc(C)c2c1 [Compound 1002, N-(4,6-dimethyl-2-quinazolinyl)guanidine] | – | – | 134 nM | 3920 nM | – | – | – | – | – | – | Inactive | > 10000 nM | 24% NPFF | 5620 nM
Cc1nc(NC(=N)N)nc2cc(C(C)C)ccc12 [Compound 1021, N-(7-isopropyl-4-methyl-2-quinazolinyl)guanidine] | – | – | 56 nM | 881 nM | – | – | – | – | – | – | Inactive | > 10000 nM | 76% NPFF | 283 nM
